In patent US8983257B2, “Therapeutic light delivery apparatus, method, and system” (Nomir Medical Technologies, Inc., priority 2002, dated 2015):
Several values for one entry are separate records, joined by “and”; a condition that tells them apart may be missing. Equal entries are not always repeated. Entries after “also recorded” stand apart in the source; their conditions may differ.

Experiments:
[1] = system: MRSA colonization in the nares; assay: Human study Part One: nasal colonization of MRSA, NOVEON laser alone, with H2O2 or with topical erythromycin; type: in vivo, Staphylococcus aureus; conditions: for MRSA Average: per patient, mean of triplicate plates, all arms with NOVEON laser
Procedure: (§1) This investigational protocol was an open-label study of subjects who are colonized with MRSA in the nares (nostril). The study was done in two parts.
(§2) In this human study, three arms were produced. […] This was done on day 1 and again on day three; and Arm #3: ⅓ of the subjects were treated with the laser and then a topical antibiotic three times a day for five days. Prior to enrollment in this study, prospective subjects met all of the following criteria: age≧18 years and ≦70 years of age; previous positive MRSA culture; negative urine pregnancy test or post-menopausal for one year; willing to comply with study requirements, including return visits and self-application of topical antibiotics; and willing to provide informed consent to participate. Prospective subjects were excluded from this study if any of the following criteria were met: pregnancy; patients who are severely immunocompromised (such as may occur in AIDS, renal transplant regimens, immunosuppressed states consequent to malignancy or agents used in rendering oncologic care, or who suffer from end stage renal disease); diabetic patients; allergy to antimicrobials being used in the study (group 3).
(§3) All participants underwent an initial quantitative assessment for nasal carriage of S. aureus, during their first visit. Each participant had the anterior nares (each nostril) sampled for culture with a circular movement (three rotations on each side) of a sterile wood applicator plain Rayon® tipped swab in each nostril and placed in a labeled tube. 2 ml of room temp phosphate buffered saline was placed in the tube after the removal of the swab (to completely cover the swab in the tube). Each swab was then placed back in the tube and the tube was then vortexed for 15 seconds to disperse isolates of MRSA and/or MSSA into the PBS solution. Aliquots of PBS from the tube were plated in the following manner: 100 μl from each tube was lawn plated in triplicate (3×) on selective Chromogenic MRSA And MSSA agar. Plates were placed in incubator within 30 minutes of the plating procedure, and colonies were counted manually, and recorded 18 hrs after plating.
(§4) On day one of the study, all subjects underwent this exact procedure in arms 1 and 2 of the study two minutes before the laser procedure. They again were sampled in the same manner 2 minutes after the laser procedure. In the third arm of the study, they were swabbed two minutes before the procedure and the first antibiotic administration was completed after the laser therapy. The post/laser swab sample was taken for this arm 20 min later.
(§5) On day three of the study, all subjects from arms one two and three underwent the exact same procedures as day 1 of the study.
(§6) On day five all subjects from all arms underwent just one swabbing per nostril with the exact same sampling procedure one time.
(§7) 3% OTC hydrogen peroxide was applied to a cotton pledget for application to the subject prior to irradiation. This was inserted in the nose for 120 seconds and then removed. The subjects were then given doses of phototherapeutic near infrared radiation as described.
(§8) The subjects were first given doses of phototherapeutic near infrared radiation as described. […] The swab was inserted approximately 1 cm in to the anterior nares and rotated 360 degrees several times and removed. Patients were instructed to perform the exact application procedure 3 times a day for the remaining 5 days.
(§9) The NOVEON™ laser was used for two (2) six-minute treatments in each nostril on day (1) and day (3) of the study.
(§10) The laser was calibrated before the first treatment of the day. Intermittent temperature testing of the treatment site was performed on each subject using a noncontact infrared thermometer (Raytek Minitemp), 30-60 second intervals. If a temperature of 110 F degrees was reached, or the patient complained of pain, the laser treatment was interrupted and only resumed when the patient was comfortable.

[2] = system: MSSA colonies in the nares; assay: Human study Part One: nasal colonization of MSSA, NOVEON laser alone, with H2O2 or with topical erythromycin; type: in vivo, Staphylococcus aureus; conditions: per patient, mean of triplicate plates, all arms with NOVEON laser
Procedure: as §1, §2, §3, §4, §5, §6, §7, §8, §9, §10

[3] = system: MRSA; assay: MRSA CFU counts on agar with trimethoprim or erythromycin after sub-lethal NIMELS laser (Example VIII); type: cell-based, Staphylococcus aureus; conditions: plates B-4 1 to 5
Source text: The following illustrates the general antibacterial methods according to the invention, using a MRSA model for the in vitro Experiments V and VIII-XII.
a) μ1 is sub-lethal dosimetry from the NIMEL laser system on MRSA as a control and;

[4] = system: MRSA; assay: MRSA/antimicrobial potentiation Experiment 4: CFU with or without methicillin, penicillin G or erythromycin, groups A4 to F4; type: cell-based, Staphylococcus aureus; conditions: for Laser Effect (+Drug): ratio of AVG Exp with drug to Cont with drug; for Drug Effect / Fold increase in antibiotic sensitivity: 0.5 μg/ml penicillin G; for Drug Effect: ratio of AVG with drug to without drug; for AVG (CFU) / CFU/ml / CFU: agar with 0.5 μg/ml penicillin G
Procedure: Two different laser dosages based on an effective dose established in previous experiments were used to treat a saline-suspension of logarithmically growing MRSA, labeled A4 to F4.
After 24 hrs of growth at 37° C. colonies were counted.

[5] = Initial Analysis, Post-treatment swab, left nostril
[6] = Initial Analysis, Post-treatment swab, right nostril
[7] = Initial Analysis, Pre swab, left nostril
[8] = Initial Analysis, Pre swab, right nostril
[9] = Second Analysis, Post-treatment swab, left nostril
[10] = Second Analysis, Post-treatment swab, right nostril
[11] = Second Analysis, Pre swab, left nostril
[12] = Second Analysis, Pre swab, right nostril
[13] = Third Analysis, Swab, left nostril
[14] = Third Analysis, Swab, right nostril

Q: `OO` [H2O2, hydrogen peroxide] was tested. Which “outcome of the Laser plus H2O2 arm (in words)” value ([1]; human subjects, 3% hydrogen peroxide in the nose for 120 seconds, then laser, day 1 and day 3) did it give?
A: may have had some transient benefit in some of the patients, but no obvious long-term efficacy

Q: Which “s. aureus Average” value [2, 5] does the source give for `OO` [Peroxide] here?
A: 0 CFU (2×) and 20 CFU and 1 CFU

Q: What about the “s. aureus Average” value [2, 6] of the same compound?
A: 0 CFU and 506 CFU and 146 CFU and 3272 CFU

Q: And the “s. aureus Average” value [2, 7]?
A: 1 CFU and 53 CFU and 17 CFU and 124 CFU

Q: And the “s. aureus Average” value [2, 8]?
A: 0 CFU and 29 CFU and 285 CFU and 3996 CFU

Q: What about the “s. aureus Average” value [2, 9] of the same compound?
A: 0 CFU (3×) and 10 CFU

Q: What about the “s. aureus Average” value [2, 10] of the same compound?
A: 0 CFU and 126 CFU and 5 CFU and 3589 CFU

Q: And the “s. aureus Average” value [2, 11]?
A: 1 CFU and 206 CFU and 4 CFU and 12 CFU

Q: What about the “s. aureus Average” value [2, 12] of the same compound?
A: 1 CFU and 94 CFU and 257 CFU and 4373 CFU

Q: And the “s. aureus Average” value [2, 13]?
A: 1 CFU and 868 CFU and 28 CFU and 0 CFU

Q: What about the “s. aureus Average” value [2, 14] of the same compound?
A: 1 CFU and 586 CFU and 52 CFU and 3493 CFU

Q: What about the “MRSA Average” value [1, 5] of the same compound?
A: 0 CFU (2×) and 22 CFU and 1 CFU

Q: What about the “MRSA Average” value [1, 6] of the same compound?
A: 0 CFU (2×) and 455 CFU and 2752 CFU

Q: What about the “MRSA Average” value [1, 7] of the same compound?
A: 0 CFU (2×) and 63 CFU and 4 CFU

Q: What about the “MRSA Average” value [1, 8] of the same compound?
A: 0 CFU (2×) and 30 CFU and 4032 CFU

Q: What about the “MRSA Average” value [1, 9] of the same compound?
A: 0 CFU (3×) and 12 CFU

Q: What about the “MRSA Average” value [1, 10] of the same compound?
A: 0 CFU (2×) and 114 CFU and 3347 CFU

Q: And the “MRSA Average” value [1, 11]?
A: 0 CFU (2×) and 180 CFU and 17 CFU

Q: And the “MRSA Average” value [1, 12]?
A: 0 CFU (2×) and 90 CFU and 3099 CFU

Q: What about the “MRSA Average” value [1, 13] of the same compound?
A: 0 CFU (3×) and 827 CFU

Q: What about the “MRSA Average” value [1, 14] of the same compound?
A: 0 CFU (2×) and 563 CFU and 3648 CFU

Q: What does the source list for `COc1cc(Cc2cnc(N)nc2N)cc(OC)c1OC` [Trimethoprim]?
A: MRSA colony count, CONTROL (no laser), trimeth 2 ug/ml ([3]; no laser, agar with trimethoprim 2 ug/ml): 145 and 213 and 198 and 240 and 220; MRSA colony count, EXPERIMENTAL, trimeth 2 ug/ml ([3]; sub-lethal NIMELS laser, then plated on agar with trimethoprim 2 ug/ml): 100 and 110

Q: Which “Laser Effect (+Drug)” value ([4]; Group C4, 0.5 μg/ml penicillin G) does the source give for Penicillin here?
A: 0.28

Q: And the “Drug Effect” value ([4]; Group C4, Cont (no laser))?
A: 0.75

Q: What about the “AVG (CFU)” value ([4]; Group C4, Cont (no laser)) of the same compound?
A: 108.4 CFU

Q: And the CFU/ml ([4]; Group C4, Cont (no laser))?
A: 3.25E+08 CFU/ml

Q: What about the CFU ([4]; Group C4, Cont (no laser), replicate plates 1-5, 24 hrs 37° C.) of the same compound?
A: 106 CFU and 99 CFU and 102 CFU and 113 CFU and 122 CFU

Q: What about the “Drug Effect” value ([4]; Group C4, Exp (laser treated)) of the same compound?
A: 0.34

Q: And the “AVG (CFU)” value ([4]; Group C4, Exp (laser treated))?
A: 30.4 CFU

Q: What about the CFU/ml ([4]; Group C4, Exp (laser treated)) of the same compound?
A: 9.12E+07 CFU/ml

Q: And the CFU ([4]; Group C4, Exp (laser treated), replicate plates 1-5)?
A: 25 CFU and 33 CFU (2×) and 19 CFU and 42 CFU

Q: And the “Laser Effect (+Drug)” value ([4]; Group D4, 0.5 μg/ml penicillin G)?
A: 0.18

Q: What about the “Drug Effect” value ([4]; Group D4, Cont (no laser)) of the same compound?
A: 1.07

Q: And the “AVG (CFU)” value ([4]; Group D4, Cont (no laser))?
A: 132.8 CFU

Q: And the CFU/ml ([4]; Group D4, Cont (no laser))?
A: 3.98E+08 CFU/ml

Q: And the CFU ([4]; Group D4, Cont (no laser), replicate plates 1-5, 24 hrs 37° C.)?
A: 101 CFU and 111 CFU and 138 CFU and 132 CFU and 182 CFU

Q: What about the “Drug Effect” value ([4]; Group D4, Exp (laser treated)) of the same compound?
A: 0.31

Q: And the “AVG (CFU)” value ([4]; Group D4, Exp (laser treated))?
A: 23.8 CFU

Q: What about the CFU/ml ([4]; Group D4, Exp (laser treated)) of the same compound?
A: 7.14E+07 CFU/ml

Q: And the CFU ([4]; Group D4, Exp (laser treated), replicate plates 1-5)?
A: 14 CFU and 23 CFU and 22 CFU and 29 CFU and 31 CFU

Q: What about the “Fold increase in antibiotic sensitivity” value ([4]; grouping C4) of the same compound?
A: 2.21

Q: What about the “Fold increase in antibiotic sensitivity” value ([4]; grouping D4) of the same compound?
A: 3.45

Q: What about the “synergy or potentiation with NIMELS in growth inhibition of MRSA colonies (in words)” value ([4]; sub-lethal NIMELS dosimetry, bar chart figure) of the same compound?
A: synergistic effects; also recorded: potentiated by sub-lethal NIMELS dosimetry

Q: And the “reversal of MRSA resistance in vitro by dual wavelength NOVEON laser (in words)” value ([4]; temperature levels not lethal to the organism)?
A: successful reversal of MRSA resistance
